We go through 20 compounds from ChEMBL document CHEMBL5505964, “HDAC/NAMPT dual inhibitors overcome initial drug-resistance in p53-null leukemia cells” (Eur J Med Chem, 2024).

In experiment [1] the target is T1, Nicotinamide phosphoribosyltransferase (Homo sapiens, UniProt P43490). Nature of the experiment: Inhibition of NAMPT (unknown origin).
Experiment [2] is described as follows: Antiproliferative activity against p53-null human PL-21 cells assessed as induction of cell death incubated for 48 hrs by resazurin dye based fluorescence analysis. It is filed as functional. The note with it: read-out: LD50 (the source's name).
The subject of experiment [3] is HL-60. Nature of the experiment: Antiproliferative activity against p53-null human HL-60 cells assessed as induction of cell death incubated for 48 hrs in presence of N-(4-(1-benzoylpiperidin-4-yl)butyl)-3-(pyridin-3-yl)acrylamide by resazurin dye based fluorescence analysis. Conditions: read-out: LD50 (the source's name). It is filed as functional.
Experiment [4] is described as follows: Antiproliferative activity against p53-null human MONO-MAC-1 cells assessed as induction of cell death incubated for 48 hrs by resazurin dye based fluorescence analysis. The format is functional. Conditions: read-out: LD50 (the source's name).
The test system of experiment [5] is MV4-11. Nature of the experiment: cells. It is filed as functional, cell-based. Conditions: Homo sapiens; for GI50: MV4-11, time 48 hrs; for pIC50: MV4-11, 48 h.
The test system of experiment [6] is HL-60. Nature of the experiment: Antiproliferative activity against p53-null human HL-60 cells assessed as induction of cell death incubated for 48 hrs in presence of methyl-4-((1H-pyrrolo[3,2-c]pyridine-2-carboxamido)methyl)benzoate by resazurin dye based fluorescence analysis. It is filed as functional. Conditions: read-out: LD50 (the source's name).
In experiment [7] the test system is HL-60. Nature of the experiment: Antiproliferative activity against p53-null human HL-60 cells assessed as inhibition of cell growth incubated for 48 hrs by resazurin dye based fluorescence analysis. The format is functional.
In experiment [8] the test system is Kasumi 1. Nature of the experiment: Antiproliferative activity against human Kasumi 1 cells harboring wild type p53 assessed as induction of cell death incubated for 48 hrs by resazurin dye based fluorescence analysis. The format is functional. Conditions: read-out: LD50 (the source's name).
The test system of experiment [9] is NB-4. As to the kind of experiment: Antiproliferative activity against p53-null human NB4 cells assessed as induction of cell death incubated for 48 hrs by resazurin dye based fluorescence analysis. It is filed as functional. The note with it: read-out: LD50 (the source's name).
Experiment [10] has as its target Histone deacetylase 3/Nuclear receptor corepressor 2 (HDAC3/NCoR2) (Homo sapiens, UniProt O15379). As to the kind of experiment: Inhibition of C-terminal His-tagged human HDAC3 (1 to 428 residues)/N-terminal GST tagged human NCOR2 (395 to 489 residues) expressed in baculovirus-infected Sf9 cells using Boc-Lys-(acetyl)-AMC as substrate preincubated with enzyme for 1 hr followed by substrate addition and measured after 2 hrs by fluorescence analysis.

In experiment [11] the target is T1, Nicotinamide phosphoribosyltransferase. As to the kind of experiment: Inhibition of N-terminal GST-tagged human recombinant NAMPT (2 to 491 residues) expressed in Escherichia coli expression system incubated for 30 mins by fluorescence based analysis.
The target of experiment [12] is Histone deacetylase 2 (Homo sapiens, UniProt Q92769). As to the kind of experiment: biochemical. The format is cell-based, Sf9.
The target of experiment [13] is Histone deacetylase 1 (Homo sapiens, UniProt Q13547). As to the kind of experiment: Inhibition of C-terminal 6XHis-tagged/FLAG-tagged full length human recombinant HDAC1 (1 to 482 residues) expressed in baculovirus-infected Sf9 cells using Boc-Lys-(acetyl)-AMC as substrate preincubated with enzyme for 1 hr followed by substrate addition and measured after 2 hrs by fluorescence analysis.

pIC50: −log10 of the molar value. Where only a bound is given, the exact number is not on record here.

T1 sequence (P43490 whole entry): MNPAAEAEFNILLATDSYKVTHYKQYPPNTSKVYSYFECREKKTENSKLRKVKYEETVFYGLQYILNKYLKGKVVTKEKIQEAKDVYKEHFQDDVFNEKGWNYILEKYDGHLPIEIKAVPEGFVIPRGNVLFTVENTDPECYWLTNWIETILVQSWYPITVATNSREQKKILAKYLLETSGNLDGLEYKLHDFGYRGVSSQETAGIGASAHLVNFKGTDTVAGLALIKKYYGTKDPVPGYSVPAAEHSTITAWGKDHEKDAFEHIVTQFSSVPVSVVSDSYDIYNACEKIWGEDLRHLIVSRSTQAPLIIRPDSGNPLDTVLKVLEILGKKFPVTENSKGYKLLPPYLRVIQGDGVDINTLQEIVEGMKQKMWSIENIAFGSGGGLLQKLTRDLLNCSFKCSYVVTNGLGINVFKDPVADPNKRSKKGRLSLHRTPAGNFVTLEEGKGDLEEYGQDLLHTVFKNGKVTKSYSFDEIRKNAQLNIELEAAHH
Chain of Histone deacetylase 2 (Q92769 whole entry, the tested form may be a part): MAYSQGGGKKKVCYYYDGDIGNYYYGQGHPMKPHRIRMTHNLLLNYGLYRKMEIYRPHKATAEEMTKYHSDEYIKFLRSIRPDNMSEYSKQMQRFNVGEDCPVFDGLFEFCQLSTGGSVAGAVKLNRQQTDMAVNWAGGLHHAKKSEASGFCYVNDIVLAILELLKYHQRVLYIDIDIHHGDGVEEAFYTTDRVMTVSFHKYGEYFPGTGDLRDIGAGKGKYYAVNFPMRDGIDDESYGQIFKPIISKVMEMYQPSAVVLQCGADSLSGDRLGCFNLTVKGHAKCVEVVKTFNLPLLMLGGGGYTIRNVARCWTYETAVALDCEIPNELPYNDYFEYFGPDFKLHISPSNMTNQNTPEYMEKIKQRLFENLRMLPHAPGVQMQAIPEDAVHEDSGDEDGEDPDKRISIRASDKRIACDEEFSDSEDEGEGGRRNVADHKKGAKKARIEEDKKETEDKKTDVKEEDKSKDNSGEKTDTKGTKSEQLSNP
Chain of Histone deacetylase 3/Nuclear receptor corepressor 2 (HDAC3/NCoR2) (O15379 whole entry, the tested form may be a part): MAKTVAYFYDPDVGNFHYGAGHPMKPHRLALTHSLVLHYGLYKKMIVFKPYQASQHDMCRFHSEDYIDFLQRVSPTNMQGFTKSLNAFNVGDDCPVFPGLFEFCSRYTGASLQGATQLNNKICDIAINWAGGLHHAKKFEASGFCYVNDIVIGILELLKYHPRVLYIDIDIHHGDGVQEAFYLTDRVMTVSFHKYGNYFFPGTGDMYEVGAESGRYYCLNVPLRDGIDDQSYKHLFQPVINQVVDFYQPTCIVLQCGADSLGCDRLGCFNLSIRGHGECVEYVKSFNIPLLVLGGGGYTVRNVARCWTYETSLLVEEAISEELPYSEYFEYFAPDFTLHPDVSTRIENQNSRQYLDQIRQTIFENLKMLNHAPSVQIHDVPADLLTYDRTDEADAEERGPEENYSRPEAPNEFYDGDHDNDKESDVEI
Chain of Histone deacetylase 3/Nuclear receptor corepressor 2 (HDAC3/NCoR2) (Q9Y618 whole entry, further chain, the tested form may be a part): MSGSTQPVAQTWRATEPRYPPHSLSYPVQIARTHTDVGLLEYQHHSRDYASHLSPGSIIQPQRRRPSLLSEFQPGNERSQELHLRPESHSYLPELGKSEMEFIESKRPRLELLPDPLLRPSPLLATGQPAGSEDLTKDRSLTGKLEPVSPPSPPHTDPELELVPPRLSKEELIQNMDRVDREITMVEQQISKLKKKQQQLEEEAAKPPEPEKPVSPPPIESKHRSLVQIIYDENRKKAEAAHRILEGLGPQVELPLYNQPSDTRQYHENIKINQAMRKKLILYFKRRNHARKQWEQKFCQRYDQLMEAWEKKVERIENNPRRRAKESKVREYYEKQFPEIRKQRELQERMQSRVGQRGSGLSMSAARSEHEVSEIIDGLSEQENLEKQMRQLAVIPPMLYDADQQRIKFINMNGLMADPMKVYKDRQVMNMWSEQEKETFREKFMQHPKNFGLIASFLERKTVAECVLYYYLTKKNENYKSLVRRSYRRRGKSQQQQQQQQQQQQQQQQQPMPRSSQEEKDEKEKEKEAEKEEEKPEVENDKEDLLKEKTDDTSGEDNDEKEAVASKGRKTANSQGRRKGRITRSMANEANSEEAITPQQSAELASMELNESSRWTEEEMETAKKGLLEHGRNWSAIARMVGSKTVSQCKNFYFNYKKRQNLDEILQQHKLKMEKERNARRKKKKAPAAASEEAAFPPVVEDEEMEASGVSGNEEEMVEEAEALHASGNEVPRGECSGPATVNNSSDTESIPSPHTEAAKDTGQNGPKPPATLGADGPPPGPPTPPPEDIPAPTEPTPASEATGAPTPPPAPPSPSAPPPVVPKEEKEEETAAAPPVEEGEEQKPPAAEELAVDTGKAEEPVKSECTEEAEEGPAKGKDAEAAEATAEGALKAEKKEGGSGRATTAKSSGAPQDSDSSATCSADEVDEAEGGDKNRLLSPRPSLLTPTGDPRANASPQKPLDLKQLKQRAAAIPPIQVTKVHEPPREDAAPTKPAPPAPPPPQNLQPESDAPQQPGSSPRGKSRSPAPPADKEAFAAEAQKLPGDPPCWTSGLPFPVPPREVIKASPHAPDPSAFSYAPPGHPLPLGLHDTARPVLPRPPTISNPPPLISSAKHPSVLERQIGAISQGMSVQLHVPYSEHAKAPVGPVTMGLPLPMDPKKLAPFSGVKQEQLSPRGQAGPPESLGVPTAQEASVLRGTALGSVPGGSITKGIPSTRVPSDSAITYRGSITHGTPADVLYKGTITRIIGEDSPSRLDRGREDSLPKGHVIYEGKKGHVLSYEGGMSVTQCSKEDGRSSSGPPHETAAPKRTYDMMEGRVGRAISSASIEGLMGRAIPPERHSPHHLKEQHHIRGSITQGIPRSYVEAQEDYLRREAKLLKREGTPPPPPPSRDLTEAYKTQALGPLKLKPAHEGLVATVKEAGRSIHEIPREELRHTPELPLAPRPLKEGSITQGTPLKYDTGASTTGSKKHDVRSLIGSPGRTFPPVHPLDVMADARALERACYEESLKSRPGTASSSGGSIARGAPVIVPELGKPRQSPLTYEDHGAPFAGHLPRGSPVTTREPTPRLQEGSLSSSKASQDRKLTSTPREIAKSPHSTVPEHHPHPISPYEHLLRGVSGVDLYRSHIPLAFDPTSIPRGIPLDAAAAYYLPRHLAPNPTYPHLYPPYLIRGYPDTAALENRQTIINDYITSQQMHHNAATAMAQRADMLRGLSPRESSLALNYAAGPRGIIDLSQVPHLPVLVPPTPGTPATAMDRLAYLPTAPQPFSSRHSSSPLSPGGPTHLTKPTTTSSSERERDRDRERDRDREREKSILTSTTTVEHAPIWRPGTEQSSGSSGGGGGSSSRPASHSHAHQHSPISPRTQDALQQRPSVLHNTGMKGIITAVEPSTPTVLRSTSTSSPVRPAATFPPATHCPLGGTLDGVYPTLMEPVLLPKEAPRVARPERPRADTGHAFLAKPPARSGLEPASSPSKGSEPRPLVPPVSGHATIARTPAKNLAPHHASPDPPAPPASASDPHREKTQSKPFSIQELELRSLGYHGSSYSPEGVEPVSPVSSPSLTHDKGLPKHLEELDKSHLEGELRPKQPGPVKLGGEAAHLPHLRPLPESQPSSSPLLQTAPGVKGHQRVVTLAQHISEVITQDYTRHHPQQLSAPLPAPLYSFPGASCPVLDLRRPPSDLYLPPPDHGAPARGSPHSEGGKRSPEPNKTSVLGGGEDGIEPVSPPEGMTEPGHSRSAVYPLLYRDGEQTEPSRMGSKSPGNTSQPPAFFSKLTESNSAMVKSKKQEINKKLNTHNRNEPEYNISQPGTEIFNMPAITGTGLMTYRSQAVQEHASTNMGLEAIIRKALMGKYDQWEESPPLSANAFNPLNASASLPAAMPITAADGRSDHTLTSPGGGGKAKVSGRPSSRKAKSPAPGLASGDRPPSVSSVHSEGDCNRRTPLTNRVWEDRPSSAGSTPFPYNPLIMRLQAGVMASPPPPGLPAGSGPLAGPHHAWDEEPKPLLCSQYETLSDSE
Chain of Histone deacetylase 1 (Q13547 whole entry, the tested form may be a part): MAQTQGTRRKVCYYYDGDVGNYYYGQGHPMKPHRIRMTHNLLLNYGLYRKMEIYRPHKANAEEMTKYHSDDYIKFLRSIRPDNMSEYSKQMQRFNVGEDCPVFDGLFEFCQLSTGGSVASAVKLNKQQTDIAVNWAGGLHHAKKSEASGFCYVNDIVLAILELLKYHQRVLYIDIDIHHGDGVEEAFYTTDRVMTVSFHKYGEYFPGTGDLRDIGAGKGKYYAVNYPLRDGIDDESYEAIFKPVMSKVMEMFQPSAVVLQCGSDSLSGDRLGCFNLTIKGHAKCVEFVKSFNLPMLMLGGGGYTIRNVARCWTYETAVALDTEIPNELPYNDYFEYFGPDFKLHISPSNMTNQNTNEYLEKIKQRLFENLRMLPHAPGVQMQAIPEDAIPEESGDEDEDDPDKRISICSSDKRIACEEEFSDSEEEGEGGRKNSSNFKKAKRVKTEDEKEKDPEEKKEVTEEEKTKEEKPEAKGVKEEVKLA

As to `Cc1ncsc1C(=O)N1CCC(CCCCNC(=O)c2cc3cnccc3[nH]2)CC1`, the pIC50 in experiment [1] is 8.30.
In the case of `CCCNNC(=O)c1ccc(CNC(=O)/C=C/c2ccccc2)cc1`, the CC50 was greater than 100000 nM in [2]; 614 nM in experiment [3]; greater than 100000 nM in [4]; 67.8 nM in experiment [6]; greater than 100000 nM in [8]; greater than 100000 nM in experiment [9]. The GI50 in experiment [5] is 16 nM; in experiment [7], 121 nM.
In the case of `CCCNNC(=O)c1ccc(CNC(=O)c2cc3ccccc3o2)cc1`, in [10], the pIC50 was 9.37.
As to `CCCNNC(=O)c1ccc(CNC(=O)c2cc3ccccc3[nH]2)cc1`, the CC50 in experiment [2] was greater than 100000 nM; in experiment [4], greater than 100000 nM; in experiment [8], 284 nM; in experiment [9] it was greater than 100000 nM. Besides, the GI50 in experiment [5] is 37.3 nM; in experiment [7], 69.6 nM.
Turning to `CCCNNC(=O)c1ccc(NC(=O)CCCCCCCNC(=O)/C=C/c2cccnc2)cc1`, the pIC50 in [5] is 6.76; in [11] it was less than 4.70.
The corresponding values for `CCCNNC(=O)CCCCCCNC(=O)/C=C/c1cccnc1` are 6.36 and 6.58.
Taken in the same sequence, the figures for `CCCNNC(=O)c1ccc(CNC(=O)CCCCCCCNC(=O)/C=C/c2cccnc2)cc1` were 5.66 and 6.31.
Regarding `CCCNNC(=O)c1ccc(CNC(=O)c2cc3cnccc3s2)cc1`, the pIC50 in [10] was 8.70.
Consider `CCCNNC(=O)c1ccc(CNC(=O)CCCCCCNC(=O)/C=C/c2cccnc2)cc1`, for which the pIC50 in experiment [5] is 5.65; in experiment [11] it was 6.58.
Taken in the same sequence, the figures for `CCCNNC(=O)c1ccc(NC(=O)CCCCCCNC(=O)/C=C/c2cccnc2)cc1` were 7.28 and less than 4.70.
As to `CCCNNC(=O)CCNC(=O)/C=C/c1cccnc1`, the pIC50 is less than 5.00 in [12], less than 4.30 in [5] and less than 4.70 in experiment [11].
As for `CCCNNC(=O)c1ccc(CNC(=O)/C=C/c2ccncc2)cc1`, the results for the pIC50 in [5] and in experiment [11] were 7.17 and less than 4.70, respectively.
Turning to `COC(=O)c1ccc(CNC(=O)c2cc3cnccc3[nH]2)cc1`, the pIC50 in [12] was less than 4.70; in experiment [10] it was less than 4.70; in experiment [5], less than 4.30; in experiment [13], less than 4.70; in [11], 5.16.
For `CCCNNC(=O)CCCCNC(=O)/C=C/c1cccnc1`, the pIC50 in experiment [5] is 6.05; in experiment [11], less than 4.70.
Consider `CCCNNC(=O)c1ccc(CNC(=O)/C=C/c2ccccn2)cc1`, for which the pIC50 in [5] was 7.07; in [11] it was less than 4.70.
With `CCCNNC(=O)c1ccc(CNC(=O)c2cc3cnccc3o2)cc1`, the results for the negative logarithm of the IC50 (pIC50) in experiment [12], in [10] and in experiment [13] were 7.71, 8.74 and 8.26, respectively.
For the compound `CCCNNC(=O)CCCCCCCNC(=O)/C=C/c1cccnc1`, the results for the pIC50 in [5] and in [11] were 6.18 and less than 4.70, respectively.
In the case of `CCCNNC(=O)CCCCCCNC(=O)c1cc2cnccc2[nH]1`, in experiment [5], the pIC50 was 7.06.
Consider `O=C(/C=C/c1cccnc1)NCCCCC1CCN(C(=O)c2ccccc2)CC1` [DAPORINAD], for which the pIC50 in [12] was less than 5.00; in experiment [10], less than 5.00; in experiment [5] it was 7.82; in experiment [13] it was less than 5.00. In addition, in experiment [7], the GI50 amounted to 12.1 nM.
Take `O=C(CCCCCCC(=O)Nc1ccccc1)NO` [VORINOSTAT]: the pIC50 in experiment [11] is less than 4.70.
